These results are taken from the RepoRT retention time repository (doi:10.1021/acs.analchem.2c02893).

Molecules are shown by their SMILES.

This data set can be described thus: RP, Thermo Scientific Acclaim RSLC 120 C18, 100 × 2.1 mm, 2.2 µm, 30 °C, 0.2 mL/min, estimated dead time 1.1 min; A: 90% water + 10% methanol + 0.01% formic acid + 5 mM ammonium formate, pH 3.61; B: methanol + 0.01% formic acid + 5 mM ammonium formate, pH 3.61; gradient (min/%B) 0/1 1/1 2/39 13/99.9 15/99.9 15.1/1 20.1/1. Conditions: stereoisomer not certain.
With `CC1COC(Cn2cncn2)(c2ccc(Oc3ccc(Cl)cc3)cc2Cl)O1` (stereo not given) [Difenoconazole], the LC retention time was 11.6 min.
On to `CNC(C)Cc1ccc(O)c(O)c1` (stereo not given) [HHMA], for which the LC retention time was 2.59 min.
The same measure for `CC1=C(C(=O)O)N2C(=O)C(NC(=O)C(N)c3ccc(O)cc3)C2SC1` (stereo not given) [Cefadroxil]: 2.84 min; for `CCN(CC)C(=O)C(Cl)=C(C)OP(=O)(OC)OC` [Phosphamidon (Dimecron)]: 6.27 min.
The same measure for `CC(C)(C)C(O)C(Oc1ccc(-c2ccccc2)cc1)n1cncn1` (stereo not given) [Bitertanol]: 11.3 min; for `CC1CCCCC1NC(=O)Nc1ccccc1` (stereo not given) [Siduron]: 9.37 min.
Turning to `COP(=O)(NC(C)=O)SC` (stereo not given) [Acephate], the LC retention time is 3.11 min.
The same measure for `CCN(CC)CCNC(=O)c1cc(Cl)c(N)cc1OC` [Metoclopramide]: 4.36 min; for `CNC(=O)Oc1cc(C)c(C)c(C)c1` [Trimethacarb (3.4.5-)]: 8.1 min; for `CC(CCc1ccccc1)NCC(O)c1ccc(O)c(C(N)=O)c1` (stereo not given) [Labetalol]: 5.74 min.
The same measure for `C[N+](C)([O-])CCCC1(c2ccc(F)cc2)OCc2cc(C#N)ccc21` (stereo not given) [Citalopram N-oxide]: 7.1 min; for `CCc1cc2c(s1)-n1c(C)nnc1CN=C2c1ccccc1` [Deschloroetizolam]: 8.43 min.
The same measure for `CC#Cc1cc(C)nc(Nc2ccccc2)n1` [Mepanipyrim]: 10.2 min; for `CCCCCCCCCCCC(=O)NCCC[N+](C)(C)CC(=O)O` [Lauramidopropylbetaine]: 13.1 min; for `CCC(C)C(=O)OC1CC(C)C=C2C=CC(C)C(CCC3CC(O)CC(=O)O3)C21` (stereo not given) [Lovastatin]: 12 min.
Regarding `Nc1ccc2c(c1)C(c1ccccc1Cl)=NCC(=O)N2` [Clonazepam- 7-Amino], the LC retention time is 4.86 min.
The same measure for `CNC1=C(c2cccc(C(F)(F)F)c2)C(=O)C(c2ccccc2)O1` (stereo not given) [Flurtamone]: 9.14 min; for `CCOC(=O)c1ncn2c1CN(C)C(=O)c1cc(F)ccc1-2` [Flumazenil]: 6.04 min.
In the case of `COC(=O)NC(=S)Nc1ccccc1NC(=S)NC(=O)OC` [Thiophanate-methyl] it was 6.93 min.
In the case of `COc1ccc(CNC(=O)c2cc([N+](=O)[O-])ccc2NC(C)CO)cc1OC` (stereo not given) [Benzamidenafil] it was 7.8 min; in that of `COc1ccc2c3c1OC1C(=O)CCC4C(C2)N(C)CCC314` (stereo not given) [Hydrocodone], 3.69 min.
On to `CCCCCCCCCC[N+](C)(C)CCCCCCCCCC` [Didecyldimethylammonium (DADMAC (C10:C10))], for which the LC retention time is 12.6 min.
The same measure for `CC(C)C(=O)Nc1ccc([N+](=O)[O-])c(C(F)(F)F)c1` [Flutamide]: 11.2 min; for `NNCCc1ccccc1` [Phenelzine]: 3.71 min; for `CCCc1nn(C)c2c(=S)nc(-c3cc(S(=O)(=O)N4CC(C)NC(C)C4)ccc3OCC)[nH]c12` (stereo not given) [Sildenafil Thiodimethyl]: 9.91 min.
Consider `Cc1ccc(Cl)c(Nc2ccccc2C(=O)O)c1Cl` [Meclofenamic acid], for which the LC retention time was 11.3 min.
In the case of `CCCCNC(=O)OCC#CI` [3-Iodopropynyl butylcarbamate] it was 8.05 min.
The same measure for `CNCC(C)CN1c2ccccc2CCc2ccccc21` (stereo not given) [Trimipramine-Nor]: 8.49 min.
Take `CC1CC2C3CC(F)C4=CC(=O)C=CC4(C)C3(F)C(O)CC2(C)C1(O)C(=O)CO` (stereo not given) [Flumethasone]: the LC retention time is 8.28 min.
The same measure for `COC(C)(C)CCCC(C)CC=CC(C)=CC(=O)OC(C)C` (stereo not given) [Methoprene]: 13.6 min.
The same measure for `CP(=O)(O)CCC(N)C(=O)O` (stereo not given) [Glufosinate]: 1.44 min; for `COC(C)C(O)(C(=O)OCC1=CC[N+]2([O-])CCC(O)C12)C(C)C` (stereo not given) [Heliotrine-N-oxide]: 3.49 min.
The same measure for `CN1C2CCC1CC(OC(=O)c1c[nH]c3ccccc13)C2` (stereo not given) [Tropisetron]: 5.09 min.
As to `Cc1cccc(C)c1N(C(=O)CCl)C1CCOC1=O` (stereo not given) [Ofurace], the LC retention time is 7 min.
Take `Clc1ccccc1CN1CCc2sccc2C1` [Ticlopidine]: the LC retention time is 9.25 min.
The same measure for `COc1cc2nc(N3CCN(C(=O)C4CCCO4)CC3)nc(N)c2cc1OC` (stereo not given) [Terazosin]: 4.92 min.
In the case of `O=C1OC(=O)c2ccccc21` [PX-1] it was 9.58 min.
In the case of `CC(C)=CCN1CCC2(C)c3cc(O)ccc3CC1C2C` (stereo not given) [Pentazocine] it was 5.46 min; in that of `CC(C)CNC(=O)N1CCNC1=O` [Isocarbamid (Azolamide)], 5.74 min.
On to `NS(=O)(=O)Cc1noc2ccccc12` [Zonisamide], for which the LC retention time was 4.53 min.
Take `CCOP(=S)(OCC)SC1OCCOC1SP(=S)(OCC)OCC` (stereo not given) [Dioxathion]: the LC retention time was 12.1 min.
In the case of `CCC1OC(=O)C(C)C(OC2CC(C)(OC)C(O)C(C)O2)C(C)C(OC2OC(C)CC(NC)C2O)C(C)(OC)CC(C)C(=O)C(C)C(O)C1(C)O` (stereo not given) [Clarithromycin-N-desmethyl] it was 9.16 min; in that of `CC(Oc1ccc(Oc2nc3ccc(Cl)cc3o2)cc1)C(=O)O` (stereo not given) [Fenoxaprop-P], 9.83 min.
Consider `COC1C(OC(N)=O)C(O)C(Oc2ccc3c(O)c(NC(=O)c4ccc(O)c(CC=C(C)C)c4)c(=O)oc3c2C)OC1(C)C` (stereo not given) [Novobiocin], for which the LC retention time was 11.2 min.
In the case of `CN1CCOC(c2ccccc2)c2ccccc2C1` (stereo not given) [Nefopam] it was 5.67 min; in that of `CCC(C)n1c(=O)[nH]c(C)c(Br)c1=O` (stereo not given) [Bromacil], 7.07 min.
The same measure for `CCOc1cc(Oc2ccc(C(F)(F)F)cc2Cl)ccc1[N+](=O)[O-]` [Oxyfluorfen]: 12.1 min; for `CCc1cc2cc(OC)c(OC)cc2c(Cc2ccccc2)n1` [Moxaverine]: 8.29 min; for `CCCCCCCCc1ccc(OCCOCCO)cc1` [Octylphenol diethoxylates (OP2EO)_NH4 adduct]: 14.1 min.
`CC(C)(C)N(NC(=O)c1ccc(Cl)cc1)C(=O)c1ccccc1` [Halofenozide]: the LC retention time was 9.25 min.
In the case of `O=C(Oc1cccc2cccnc12)c1cn(CCCCCF)c2ccccc12` [PB-22-5F] it was 10.7 min; in that of `C=CC(=O)NC(C)(C)CS(=O)(=O)O` [2-Acrylamido-2-methylpropane sulfonic acid (AMPS)], 2.8 min.
In the case of `CC(C(=O)O)c1ccc(CC(C)(C)O)cc1` (stereo not given) [Ibuprofen- 2-Hydroxy] it was 7.08 min; in that of `CCC(CC)OC1C=C(C(=O)O)CC(N)C1NC(C)=O` (stereo not given) [Oseltamivir-carboxylate], 4.73 min; in that of `COP(=S)(OC)SCC(=O)N(c1ccc(Cl)cc1)C(C)C` [Anilofos], 10.8 min.
The same measure for `CCCC(C)(COC(N)=O)COC(=O)NC(C)C` (stereo not given) [Carisoprodol]: 7.99 min; for `CC=C1CC(C)C(O)(CO)C(=O)OCC2=CC[N+]3([O-])CCC(OC1=O)C23` (stereo not given) [Retrorsine-N-oxide]: 4.33 min.
In the case of `COc1ccc2c3c1OC1C(O)C=CC4C(C2)NCCC341` (stereo not given) [Codeine-Nor], the LC retention time is 3.5 min.
The same measure for `Fc1ccc(C2(Cn3cncn3)OC2c2ccccc2Cl)cc1` (stereo not given) [Epoxiconazole]: 10.3 min; for `CCC(CC)Nc1c([N+](=O)[O-])cc(C)c(C)c1[N+](=O)[O-]` [Pendimethalin]: 12.8 min.
In the case of `CCN(CC)C(=O)SCc1ccccc1Cl` [Orbencarb] it was 11.3 min; in that of `CC(C)(c1ccc(OCC(O)CCl)cc1)c1ccc(OCC2CO2)cc1` (stereo not given) [Bisphenol<U+00A0>A (3-chloro-2-hydroxypropyl) glycidyl ether], 11.1 min.
The same measure for `COc1ccc(OC)c(CCN)c1` [2C-H]: 4.43 min; for `Cc1cc(C)nc(NS(=O)(=O)c2ccc(N)cc2)n1` [Sulfadimidine (Sulfamethazine)]: 4.31 min; for `CCN(CC)CCCN(c1ccccc1)C1Cc2ccccc2C1` [Aprindine]: 8.85 min.
On to `C=CC=CCC1=C(C)C(OC(=O)C2C(C=C(C)C(=O)OC)C2(C)C)CC1=O` (stereo not given) [Pyrethrin II], for which the LC retention time is 11.7 min.
The same measure for `CC12CCC(=O)C=C1CCC1C2CCC2(C)C(OC(=O)c3ccccc3)CCC12` (stereo not given) [Testosterone benzoate]: 13.8 min; for `CCCC(NC)C(=O)c1ccccc1` (stereo not given) [Pentedrone]: 4.89 min.
The same measure for `CCOP(=S)(OCC)Oc1ccc(Cl)cc1Cl` [Dichlofenthion]: 12.6 min; for `CCOP(=S)(OCC)N1C(=O)c2ccccc2C1=O` [Ditalimfos]: 10.2 min.
As to `CCCCNC(=O)n1c(NC(=O)OC)nc2ccccc21` [Benomyl (decomposed to Carbendazim)], the LC retention time is 5.46 min.
The same measure for `CCCCCCCCCCCC[N+](CCO)(CCO)Cc1ccccc1` [Benzoxonium]: 11.3 min; for `O=c1ccc2cc(OC3OC(CO)C(O)C(O)C3O)c(O)cc2o1` (stereo not given) [Esculin]: 3.69 min.
The same measure for `CCc1cccc(C)c1N(C(=O)CCl)C(C)COC` (stereo not given) [Metolachlor]: 10.3 min.
Take `CN1C2CC(OC(=O)C(CO)c3ccccc3)CC1C1OC12` (stereo not given) [Scopolamine]: the LC retention time was 3.83 min.
